Our source for the IC50 values is patent US8138168B1 (Takeda Pharmaceutical Company Limited, priority 2007, dated 2012).

This assay deals with T1, Recombinant human renin (Homo sapiens, UniProt P00797).
T1 construct: isolate the active form (residues 67-406); made in house; host or cells: FreeStyle 293-F cells (transient expression of pcDNA3.1(+)/hREN)
T1 sequence (P00797 67-406): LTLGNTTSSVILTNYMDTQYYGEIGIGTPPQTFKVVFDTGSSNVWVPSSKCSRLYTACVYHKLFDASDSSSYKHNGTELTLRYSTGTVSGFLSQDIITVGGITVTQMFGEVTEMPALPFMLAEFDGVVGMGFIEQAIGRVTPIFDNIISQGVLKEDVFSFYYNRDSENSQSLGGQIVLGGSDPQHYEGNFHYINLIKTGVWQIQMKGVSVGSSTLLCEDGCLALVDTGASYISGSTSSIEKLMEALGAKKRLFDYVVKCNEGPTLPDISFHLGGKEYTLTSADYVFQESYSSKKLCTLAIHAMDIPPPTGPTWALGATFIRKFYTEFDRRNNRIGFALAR
Kind of assay: In vitro enzymatic activity assay of renin inhibitors (fluorogenic peptide substrate). As to conditions: read-out: IC50 of Exemplified Compounds Against Renin. In kind it is biochemical. The protocol: Test compounds in varying concentrations may be reacted with recombinant human renin in the presence of substrate, e.g., QXL520-γ-Abu-[…](HiLyteFluo488)-Arg-OH (Anaspec, San Jose, Calif.). […] Inhibition constants (IC50) may be calculated by non-linear curve fitting of the compound concentrations and fluorescence intensities to the standard IC50 equation.
Solutions of test compounds in varying concentrations mM final concentration) are prepared in dimethyl sulfoxide (DMSO) and then diluted into assay buffer comprising 50 mM Hepes, 1 mM EDTA, 1 mM DTT, 0.1 mg/mL BSA, 0.01% Brij35, pH 7.4. Alternatively, the assay can be performed with a high BSA concentration, wherein the buffer contains an additional 2% BSA.
Recombinant human renin (3 nM final concentration) is added to the dilutions and pre-incubated with the compounds for 10 minutes at 37° C. […] After pre-incubation, the reaction is initiated with of substrate QXL520-γ-Abu-[…](HiLyteFluo488)-Arg-OH (Anaspec, San Jose, Calif.). The final DMSO in the assay is 5%. The total volume of the reaction mixture is 20 μL, which can be placed on Greiner 384-well small volume plates.
The fluorescence intensity is determined upon the addition of substrate and determined again after incubation at 37° C. for one hour. The fluorescence intensity of a blank (no inhibition) using vehicle alone is also determined. Renin activity is linearly proportional to the change in fluorescence observed (final-initial).
Turning to `COCCCn1c([C@H]2CCCN(C(=O)C[C@H](N)Cc3ccc(Cl)cc3)C2)nc2ccccc21` [Compound 68, (R)-3-amino-4-(4-chlorophenyl)-1-((S)-3-(1-(3-methoxypropyl)-1H-benzo[d]imidazol-2-yl)piperidin-1-yl)butan-1-one], the IC50 was above 1 µM. Consider `COCCCn1c([C@@H]2CCCN(C(=O)C[C@@H](N)Cc3ccc(Cl)cc3)C2)nc2ccccc21` [Compound 69, (S)-3-amino-4-(4-chlorophenyl)-1-((R)-3-(1-(3-methoxypropyl)-1H-benzo[d]imidazol-2-yl)piperidin-1-yl)butan-1-one], for which the IC50 is above 1 µM. The same measure for `COCCCn1c([C@H]2CCCN(C(=O)C[C@@H](N)Cc3ccc(Cl)cc3)C2)nc2ccccc21` [Compound 70, (S)-3-amino-4-(4-chlorophenyl)-1-((S)-3-(1-(3-methoxypropyl)-1H-benzo[d]imidazol-2-yl)piperidin-1-yl)butan-1-one]: above 1 µM.

`N[C@@H](CC(=O)N1CCC[C@@H](c2nc3ccccc3[nH]2)C1)Cc1ccc(-c2ccccc2)cc1` [Compound 71, (R)-1-((R)-3-(1H-benzo[d]imidazol-2-yl)piperidin-1-yl)-3-amino-4-(biphenyl-4-yl)butan-1-one]: the IC50 was above 1 µM. For `COCCCn1c([C@@H]2CCCN(C(=O)C[C@H](N)Cc3ccc4ccccc4c3)C2)nc2ccccc21` [Compound 74, (R)-3-amino-1((R)-3-(1-(3-methoxypropyl)-1H-benzo[d]imidazol-2-yl)piperidin-1-yl)-4-(naphthalen-2-yl)butan-1-one] the value was below 0.1 µM; for `COCCCn1c([C@@H]2CCCN(C(=O)C[C@H](N)Cc3ccc(Cl)cc3)C2)nc2ccccc21` [Compound 75, (R)-3-amino-4-(4-chlorophenyl)-1((R)-3-(1-(3-methoxypropyl)-1H-benzo[d]imidazol-2-yl)piperidin-1-yl)butan-1-one], 0.1 to 1 µM; for `COCCCn1c([C@@H]2CCCN(C(=O)C[C@H](N)Cc3ccc(F)c(F)c3)C2)nc2ccccc21` [Compound 76, (R)-3-amino-4-(3,4-difluorophenyl)-1((R)-3-(1-(3-methoxypropyl)-1H-benzo[d]imidazol-2-yl)piperidin-1-yl)butan-1-one], 0.1 to 1 µM. The same measure for `COCCCn1c([C@@H]2CCCN(C(=O)C[C@H](N)Cc3ccc(Cl)c(Cl)c3)C2)nc2ccccc21` [Compound 77, (R)-3-amino-4-(3,4-dichlorophenyl)-1((R)-3-(1-(3-methoxypropyl)-1H-benzo[d]imidazol-2-yl)piperidin-1-yl)butan-1-one]: 0.1 to 1 µM. The same measure for `COCCCn1c([C@@H]2CCCN(C(=O)C[C@H](N)Cc3ccncc3)C2)nc2ccccc21` [Compound 78, (R)-3-amino-1-((R)-3-(1-(3-methoxypropyl)-1H-benzo[d]imidazol-2-yl)piperidin-1-yl)-4-(pyridin-4-yl)butan-1-one]: above 1 µM. Turning to `COCCCn1c([C@@H]2CCCN(C(=O)C[C@H](N)Cc3cccc(Cl)c3)C2)nc2ccccc21` [Compound 79, (R)-3-amino-4-(3-chlorophenyl)-1((R)-3-(1-(3-methoxypropyl)-1H-benzo[d]imidazol-2-yl)piperidin-1-yl)butan-1-one], the IC50 was 0.1 to 1 µM.

In the case of `COCCCn1c([C@@H]2CCCN(C(=O)C[C@H](N)c3cccc(Br)c3)C2)nc2ccccc21` [Compound 80, (S)-3-amino-3-(3-bromophenyl)-1((R)-3-(1-(3-methoxypropyl)-1H-benzo[d]imidazol-2-yl)piperidin-1-yl)propan-1-one], the IC50 lay within 0.1 to 1 µM. The same measure for `COCCCn1c([C@@H]2CCCN(C(=O)C[C@H](N)Cc3ccc4ccccc4c3)C2)nc2cc(Cl)c(Cl)cc21` [Compound 81, (R)-3-amino-1((R)-3-(5,6-dichloro-1-(3-methoxypropyl)-1H-benzo[d]imidazol-2-yl)piperidin-1-yl)-4-(naphthalen-2-yl)butan-1-one]: 0.1 to 1 µM; for `COCCCn1c([C@@H]2CCCN(C(=O)C[C@H](N)Cc3cccnc3)C2)nc2ccccc21` [Compound 82, (R)-3-amino-1((R)-3-(1-(3-methoxypropyl)-1H-benzo[d]imidazol-2-yl)piperidin-1-yl)-4-(pyridin-3-yl)butan-1-one]: above 1 µM; for `COCCCn1c([C@@H]2CCCN(C(=O)C[C@H](N)c3cccc(Cl)c3)C2)nc2ccccc21` [Compound 83, (S)-3-amino-3-(3-chlorophenyl)-1((R)-3-(1-(3-methoxypropyl)-1H-benzo[d]imidazol-2-yl)piperidin-1-yl)propan-1-one]: above 1 µM.

As to `COCCCn1c([C@@H]2CCCN(C(=O)C[C@H](N)c3cccc(C(F)(F)F)c3)C2)nc2ccccc21` [Compound 84, (S)-3-amino-1-((R)-3-(1-(3-methoxypropyl)-1H-benzo[d]imidazol-2-yl)piperidin-1-yl)-3-(3-(trifluoromethyl)phenyl)propan-1-one], the IC50 was in the range of 0.1 to 1 µM. For `COCCCn1c([C@@H]2CCCN(C(=O)C[C@H](N)c3cccc(C#N)c3)C2)nc2ccccc21` [Compound 85, 3-((S)-1-amino-3-((R)-3-(1-(3-methoxypropyl)-1H-benzo[d]imidazol-2-yl)piperidin-1-yl)-3-oxopropyl)benzonitrile] the value was above 1 µM. As to `COCCCn1c([C@@H]2CCCN(C(=O)C[C@H](N)Cc3cc(F)c(F)cc3F)C2)nc2ccccc21` [Compound 86, (R)-3-amino-1((R)-3-(1-(3-methoxypropyl)-1H-benzo[d]imidazol-2-yl)piperidin-1-yl)-4-(2,4,5-trifluorophenyl)butan-1-one], the IC50 was in the range of 0.1 to 1 µM. For `COCCCn1c([C@@H]2CCCN(C(=O)C[C@H](N)Cc3ccccc3)C2)nc2ccccc21` [Compound 87, (R)-3-amino-1((R)-3-(1-(3-methoxypropyl)-1H-benzo[d]imidazol-2-yl)piperidin-yl)-4-phenylbutan-1-one] the value was 0.1 to 1 µM. The same measure for `COCCCn1c([C@@H]2CCCN(C(=O)C[C@H](N)COCc3ccccc3)C2)nc2ccccc21` [Compound 88, (S)-3-amino-4-(benzyloxy)-1-((R)-3-(1-(3-methoxypropyl)-1H-benzo[d]imidazol-2-yl)piperidin-1-yl)butan-1-one]: above 1 µM. Consider `COCCCn1c([C@@H]2CCCN(C(=O)C[C@H](N)c3ccccc3)C2)nc2ccccc21` [Compound 89, (S)-3-amino-1((R)-3-(1-(3-methoxypropyl)-1H-benzo[d]imidazol-2-yl)piperidin-1-yl)-3-phenylpropan-1-one], for which the IC50 is above 1 µM. The same measure for `COCCCn1c([C@@H]2CCCN(C(=O)C[C@H](N)Cc3ccc(C(C)(C)C)cc3)C2)nc2ccccc21` [Compound 90, (R)-3-amino-4-(4-tert-butylphenyl)-1((R)-3-(1-(3-methoxypropyl)-1H-benzo[d]imidazol-2-yl)piperidin-1-yl)butan-1-one]: below 0.1 µM. Take `COCCCn1c([C@@H]2CCCN(C(=O)C[C@H](N)Cc3ccc(Br)cc3)C2)nc2ccccc21` [Compound 91, (R)-3-amino-4-(4-bromophenyl)-1((R)-3-(1-(3-methoxypropyl)-1H-benzo[d]imidazol-2-yl)piperidin-1-yl)butan-1-one]: the IC50 lay in the range of 0.1 to 1 µM. The same measure for `COCCCn1c([C@@H]2CCCN(C(=O)[C@H](O)[C@H](N)c3ccccc3)C2)nc2ccccc21` [Compound 92, (2R,3R)-3-amino-2-hydroxy-1-((R)-3-(1-(3-methoxypropyl)-1H-benzo[d]imidazol-2-yl)piperidin-1-yl)-3-phenylpropan-1-one]: 0.1 to 1 µM.

Take `COCCCn1c([C@@H]2CCCN(C(=O)CC(CN)c3ccc(Cl)cc3)C2)nc2ccccc21` (stereo partly drawn) [Compound 93, 4-amino-3-(4-chlorophenyl)-1-((R)-3-(1-(3-methoxypropyl)-1H-benzo[d]imidazol-2-yl)piperidin-1-yl)butan-1-one]: the IC50 was above 1 µM. The same measure for `COCCCn1c([C@@H]2CCCN(C(=O)CC(N)C3CCNCC3)C2)nc2ccccc21` (stereo partly drawn) [Compound 94, 3-amino-1-((R)-3-(1-(3-methoxypropyl)-1H-benzo[d]imidazol-2-yl)piperidin-1-yl)-3-(piperidin-4-yl)propan-1-one]: above 1 µM; for `COCCCn1c([C@@H]2CCCN(C(=O)C[C@H](N)Cc3ccc4ccccc4c3)C2)nc2ccc(F)cc21` [Compound 95, (R)-3-amino-1((R)-3-(6-fluoro-1-(3-methoxypropyl)-1H-benzo[d]imidazol-2-yl)piperidin-1-yl)-4-(naphthalen-2-yl)butan-1-one]: 0.1 to 1 µM.
